The source of these data is patent US20090117203A1, “KIT FOR CANCER TREATMENT AND PHARMACEUTICAL COMPOSITION FOR CANCER TREATMENT” (TMRC Co., Ltd., priority 2006, published 2009).

In assay [1] the test system is human multiple myeloma U266. Nature of the assay: Blood human IgE in NOG mice transplanted with human multiple myeloma U266. The conditions noted are these: for effect on blood concentration of human IgE (in words): NOG mice transplanted with U266; for Blood IgE level / Suppression ratio (blood IgE): NOG mice, 6 weeks after transplantation of U266. It is filed as in vivo. The procedure:
Prednisolone (hereinafter, abbreviated to “PSL”), which is a general name of that manufactured by Shionogi & Co., Ltd., was used as a chemotherapeutic agent.
Seven-week-old NOD/SCID/γc^null (NOG) mice were divided into five groups of ten mice each (nine mice only in a control group), and […] cells of multiple myeloma cell line U266 were transplanted to each mouse via tail vein injection (the 0th day). The first group was used as a non-treated control group; in the second group, 1 mg/kg of TM-411 was orally administered for 28 days from the first day; in the third group, 3 mg/kg of TM-411 was orally administered for 28 days from the first day; in the fourth group, 7.5 mg/kg of PSL was orally administered for 8 days from the 21st day; and in the fifth group, 1 mg/kg of TM-411 was orally administered for 28 days from the first day and 7.5 mg/kg of PSL was orally administered in addition to the TM-411 for 8 days from the 21st day. Blood concentration of human IgE was measured 6 weeks after the transplantation of U266.

Another assay concerns human liver cancer HePG2. Put plainly: Growth suppression of human liver cancer HePG2 transplanted in nude mice. It is filed as in vivo. The conditions noted are these: for tumor volume: nude mice, TM-411 1 mg/kg oral daily 20 days, ADR 5 mg/kg i.v. once on first day; for effect on suppression of the growth of the tumor (in words): nude mice transplanted with HePG2, same doses as Table 3. The procedure: Doxorubicin (hereinafter, abbreviated to “ADR”), which is a general name of that manufactured by Kyowa Hakko Kogyo Co., Ltd., was used as a chemotherapeutic agent.
About 2×2×2 mm of a tumor cell mass of human liver cancer HePG2 was subcutaneously transplanted in dorsal portions of 6-week-old BALB/cAJcl-nu nude mice through a trocar. The administration was started on the day (defined as the first day) two days after the transplantation. TM-411 was orally administered at a dose of 1 mg/kg for 20 days every day from the first day. ADR was intravenously administered at a dose of 5 mg/kg once on the first day.
In a combination use group of TM-411 and ADR, each agent was administered at the same amount and the same administration route as those in the single administration. Tumor diameters were measured every day from the day of the start of the administration (the 1st day) to the day of the completion of the administration (the 20th day), and effect on suppression of the growth was investigated. […] In a control group, physiological saline was administered at the same amount and the same administration route as those in the single administration of each agent.

In assay [2] the test system is human breast cancer Br-10. Put plainly: Growth suppression of human breast cancer Br-10 transplanted in nude mice. Format: in vivo, mouse. The conditions noted are these: for tumor volume: nude mice, TM-411 1 mg/kg oral daily 28 days, DXL 7.5 mg/kg i.v. every 4 days three times; for effect on suppression of the growth of the tumor (in words): nude mice transplanted with Br-10, same doses as Table 1. The text has this:
Tamibarotene (hereinafter, simply abbreviated to “TM-411”) was used as a synthetic retinoid and was also used in the following other Examples. Taxotere (hereinafter, abbreviated to “DXL”), which is a general name of that manufactured by sanofi-aventis K.K., was used as a chemotherapeutic agent.
A tumor cell mass of human breast cancer Br-10 was subcutaneously transplanted in dorsal portions of 6-week-old BALB/cAJcl-nu nude mice through a trocar. When the tumor volume reached 100 to 300 mm^3, the administration was started. TM-411 was orally administered once a day at a dose of 1 mg/kg for 28 days every day. DXL was intravenously administered from the first day at a dose of 7.5 mg/kg every 4 days three times.
In a combination use group of TM-411 and DXL, each agent was administered at the same amount and the same administration route as those in the single administration. Tumor diameters were measured every day from the day of the start of the administration (the 1st day) to the next day of the completion of the administration (the 29th day), and effect on suppression of the growth was investigated. […] In a control group, physiological saline was administered at the same amount and the same administration route as those in the single administration of each agent.

The test system of a further assay is human liver cancer JHH-7. Nature of the assay: Growth suppression of human liver cancer JHH-7 transplanted in nude mice. Format: in vivo. The conditions noted are these: for tumor volume: nude mice, TM-411 3 mg/kg oral daily 20 days, 5-FU 15.2 mg/kg oral 8th to 12th day; for effect on suppression of the growth of the tumor (in words): nude mice transplanted with JHH-7, same doses as Table 2. The method, then: Fluorouracil (hereinafter, abbreviated to “5-FU”), which is a general name of that manufactured by Kyowa Hakko Kogyo Co., Ltd., was used as a chemotherapeutic agent.
A tumor cell mass of human liver cancer JHH-7 was subcutaneously transplanted in dorsal portions of 6-week-old BALB/cAJcl-nu nude mice through a trocar. When the tumor volume reached 100 to 300 mm^3, the administration was started. TM-411 was orally administered once a day at a dose of 3 mg/kg for 20 days every day. 5-FU was orally administered at a dose of 15.2 mg/kg for 5 days every day from the 8th day to the 12th day.
In a combination use group of TM-411 and 5-FU, each agent was administered at the same amount and the same administration route as those in the single administration. Tumor diameters were measured every day from the day of the start of the administration (the 1st day) to the next day of the completion of the administration (the 21st day), and effect on suppression of the growth was investigated. […] In a control group, physiological saline was administered at the same amount and the same administration route as those in the single administration of each agent.

Setting [3] is: PSL 7.5 mg/kg oral 8 days from 21st day.

SMILES strings stand for the structures.

Regarding `C[C@]12C=CC(=O)C=C1CC[C@@H]1[C@@H]2[C@@H](O)C[C@@]2(C)[C@H]1CC[C@]2(O)C(=O)CO` [PSL, Prednisolone], the “effect on blood concentration of human IgE (in words)” value in assay [1] is given as “decreased”. Besides, in assay [1] (setting [3]), the “Blood IgE level” value amounted to 2204 ng/mL and the “Suppression ratio (blood IgE)” value was 18.2%.

For `COc1cccc2c1C(=O)c1c(O)c3c(c(O)c1C2=O)C[C@@](O)(C(=O)CO)C[C@@H]3O[C@H]1C[C@H](N)[C@H](O)[C@H](C)O1` [ADR, Doxorubicin], the tumor volume with human liver cancer HePG2 (3rd day) is 4.0 mm^3; in the assay with human liver cancer HePG2 (7th day), 18.8 mm^3; in the assay with human liver cancer HePG2 (9th day), 45.5 mm^3; in the assay with human liver cancer HePG2 (11th day) it was 180.0 mm^3; with human liver cancer HePG2 (13th day) it was 410.5 mm^3; with human liver cancer HePG2 (15th day) it was 650 mm^3. Further, the tumor volume in the assay on human liver cancer HePG2 (17th day) is given as 842 mm^3; with human liver cancer HePG2 (20th day), 1000 mm^3. Besides, the “effect on suppression of the growth of the tumor (in words)” value (from here on “effect on suppression”) in the assay on human liver cancer HePG2 is reported as “suppressed the growth of the tumor”.

Consider `CC(=O)O[C@@]12CO[C@@H]1C[C@H](O)[C@@]1(C)C(=O)[C@H](O)C3=C(C)[C@@H](OC(=O)[C@H](O)[C@@H](NC(=O)OC(C)(C)C)c4ccccc4)C[C@@](O)([C@@H](OC(=O)c4ccccc4)[C@H]21)C3(C)C` [DXL, Taxotere], for which the tumor volume in assay [2] (1st day) came out at 138.9 mm^3; in assay [2] (5th day), 149.7 mm^3; in assay [2] (8th day), 132.6 mm^3; in assay [2] (12th day), 93.9 mm^3; in assay [2] (15th day) it was 76.0 mm^3; in assay [2] (19th day), 70.1 mm^3. Moreover, the results for the tumor volume in assay [2] (22nd day), in assay [2] (25th day) and in assay [2] (29th day) were 59.3 mm^3, 58.2 mm^3 and 62.3 mm^3, respectively. For the same compound, the “effect on suppression” value in assay [2] was “significantly suppressed”.

In the case of `CC1(C)CCC(C)(C)c2cc(NC(=O)c3ccc(C(=O)O)cc3)ccc21` [TM-411, Tamibarotene], the tumor volume in assay [2] (1st day) is recorded as 136.4 mm^3; in assay [2] (5th day), 173.6 mm^3; in assay [2] (8th day), 234.1 mm^3; in assay [2] (12th day) it was 317.5 mm^3; in assay [2] (15th day) it was 359.5 mm^3; in assay [2] (19th day) it was 429.9 mm^3. In addition, the tumor volume in assay [2] (22nd day) came out at 451.7 mm^3; in assay [2] (25th day), 455.7 mm^3; in assay [2] (29th day) it was 476.5 mm^3; in the assay with human liver cancer JHH-7 (1st day), 136.1 mm^3; in the assay with human liver cancer JHH-7 (4th day) it was 169.8 mm^3; in the assay on human liver cancer JHH-7 (7th day) it was 201.8 mm^3. In addition, the tumor volume in the assay on human liver cancer JHH-7 (11th day) was found to be 312.7 mm^3; in the assay with human liver cancer JHH-7 (14th day), 452.7 mm^3; with human liver cancer JHH-7 (18th day) it was 953.1 mm^3; in the assay on human liver cancer JHH-7 (21st day), 1097.4 mm^3; with human liver cancer HePG2 (3rd day), 15.8 mm^3; in the assay with human liver cancer HePG2 (5th day), 21.4 mm^3. Moreover, the tumor volume in the assay on human liver cancer HePG2 (7th day) is listed as 33.6 mm^3; in the assay on human liver cancer HePG2 (9th day), 171.5 mm^3; in the assay on human liver cancer HePG2 (11th day) it was 196 mm^3; with human liver cancer HePG2 (13th day) it was 256 mm^3; in the assay on human liver cancer HePG2 (15th day), 520 mm^3; in the assay on human liver cancer HePG2 (17th day) it was 600 mm^3. The tumor volume in the assay with human liver cancer HePG2 (20th day) is 726 mm^3. The “effect on suppression” value in assay [2] is on record as “significantly suppressed”; with human liver cancer JHH-7, “suppressed”; in the assay with human liver cancer HePG2 it was “suppressed the growth of the tumor”. Further, in assay [1], the “effect on blood concentration of human IgE (in words)” value is recorded as “decreased”. Besides, the figures for the “Blood IgE level” value in assay [1] (TM-411 1 mg/kg oral 28 days) and in assay [1] (TM-411 3 mg/kg oral 28 days) were 2519 ng/mL and 1755 ng/mL, respectively. Further, the “Suppression ratio (blood IgE)” value in assay [1] (TM-411 1 mg/kg oral 28 days) was 6.5%; in assay [1] (TM-411 3 mg/kg oral 28 days), 34.0%.

Regarding `O=c1[nH]cc(F)c(=O)[nH]1` [5-FU, Fluorouracil], the tumor volume was found to be 126.6 mm^3 with human liver cancer JHH-7 (1st day); 193.8 mm^3 with human liver cancer JHH-7 (4th day); 291.6 mm^3 with human liver cancer JHH-7 (7th day); 496.6 mm^3 with human liver cancer JHH-7 (11th day); 697.5 mm^3 with human liver cancer JHH-7 (14th day); 1071 mm^3 with human liver cancer JHH-7 (18th day). The tumor volume with human liver cancer JHH-7 (21st day) is reported as 1408 mm^3. Moreover, the “effect on suppression” value in the assay on human liver cancer JHH-7 is listed as “suppressed”.
